{"source": "patent US8008292B2", "about": "“Condensed benzamide compounds and inhibitors of vanilloid receptor subtype 1 (VR1) activity” (Japan Tobacco Inc., priority 2004, dated 2011)", "data": [{"target": "T1, human VR1 (Homo sapiens, UniProt Q8NER1)", "T1 construct": "expressed in transfected cells", "T1 sequence (Q8NER1 whole entry)": "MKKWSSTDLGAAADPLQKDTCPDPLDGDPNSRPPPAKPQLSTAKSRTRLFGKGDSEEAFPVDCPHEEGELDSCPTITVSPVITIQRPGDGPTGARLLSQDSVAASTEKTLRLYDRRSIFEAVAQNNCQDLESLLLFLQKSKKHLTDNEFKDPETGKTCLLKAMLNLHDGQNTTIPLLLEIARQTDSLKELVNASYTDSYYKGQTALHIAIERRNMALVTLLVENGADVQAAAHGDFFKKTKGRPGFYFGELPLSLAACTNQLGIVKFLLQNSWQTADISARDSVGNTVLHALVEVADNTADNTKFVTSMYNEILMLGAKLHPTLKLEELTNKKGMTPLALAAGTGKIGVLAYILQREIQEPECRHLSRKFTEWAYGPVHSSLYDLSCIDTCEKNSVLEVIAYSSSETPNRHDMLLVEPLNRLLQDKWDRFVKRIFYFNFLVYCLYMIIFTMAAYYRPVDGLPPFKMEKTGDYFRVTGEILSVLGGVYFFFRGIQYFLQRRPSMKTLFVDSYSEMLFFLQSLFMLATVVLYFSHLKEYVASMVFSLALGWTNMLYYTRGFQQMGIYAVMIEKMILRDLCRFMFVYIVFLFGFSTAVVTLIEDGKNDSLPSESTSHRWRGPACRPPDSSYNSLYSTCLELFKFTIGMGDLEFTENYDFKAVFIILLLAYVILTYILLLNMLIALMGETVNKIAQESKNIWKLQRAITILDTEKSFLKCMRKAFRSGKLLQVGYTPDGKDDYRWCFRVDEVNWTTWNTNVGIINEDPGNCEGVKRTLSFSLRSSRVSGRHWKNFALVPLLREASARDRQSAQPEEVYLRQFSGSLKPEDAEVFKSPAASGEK", "assay": "Inhibition of Ca2+ entry in cells caused by proton, in rat glioma (C6BU1) cells stably expressing human VR1 (Fura 2 fluorescence)", "format": "cell-based", "settings": "inhibition of proton-induced Ca2+ entry", "method_in_brief": "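Fura 2-loaded C6BU1 cells in 20 mM MES buffer pH 6.8 with added Ca2+ were preincubated 10 min with compound (final 1 μM to 0.1 nM, 1% DMSO). Proton stimulation brought pH to 5.5. Fluorescence rise was measured, and IC50 was derived from % inhibition versus DMSO control.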", "units": {"IC50": "nM"}, "values": [{"compound": "COc1ccc(N2CCOc3c(C(=O)Nc4ccc(Cl)cc4)cccc32)cc1", "note": "[Example 7-03, N-(4-chlorophenyl)-4-(4-methoxyphenyl)-3,4-dihydro-2H-benzo[1,4]oxazine-8-carboxamide]", "IC50": "< 100"}, {"compound": "O=C(Nc1ccc(OC(F)(F)F)cc1)c1cccc2c1OCCN2c1ncccc1CO", "note": "[Example 2-11, N-(4-trifluoromethoxyphenyl)-4-(3-hydroxymethylpyridin-2-yl)-3,4-dihydro-2H-benzo[1,4]oxazine-8-carboxamide]", "IC50": "100 to 1000"}, {"compound": "Cc1ccc(N2c3cccc(C(=O)Nc4ccc(OC(C)C)c(F)c4)c3OC[C@@H]2CO)nc1", "note": "[Example 4-46]", "IC50": "< 100"}, {"compound": "Cc1ccc(N2c3cccc(C(=O)Nc4ccc(OC(C)(C)C)c(F)c4)c3OC[C@@H]2CO)nc1", "note": "[Example 4-50]", "IC50": "< 100"}, {"compound": "CC(O)c1cnc(N2CCOc3c(C(=O)Nc4ccc(C(F)(F)F)cc4)cccc32)c(Cl)c1", "note": "(stereo not drawn) [Example 1-130]", "IC50": "< 100"}, {"compound": "CC(=O)NC[C@H]1COc2c(C(=O)Nc3ccc(C(F)(F)F)cc3)cccc2N1c1ncccc1Cl", "note": "[Example 1-228]", "IC50": "< 100"}, {"compound": "O=C(Nc1ccc(C(F)(F)F)cc1)c1cccc2c1OCCN2c1ncccc1Cl", "note": "[Example 1-100]", "IC50": "< 100"}, {"compound": "Cc1nc(N2c3cccc(C(=O)Nc4ccc(C(F)(F)F)cc4)c3OC[C@@H]2CO)sc1C", "note": "[Example 6-14, (S)-4-(4,5-dimethylthiazol-2-yl)-3-hydroxymethyl-N-(4-trifluoromethylphenyl)-3,4-dihydro-2H-benzo[1,4]oxazine-8-carboxamide]", "IC50": "< 100"}, {"compound": "CN(C)c1ccc(NC(=O)c2cccc3c2OC[C@H](CO)N3c2ncccc2Cl)cc1F", "note": "[Example 4-12]", "IC50": "< 100"}, {"compound": "O=C(Nc1ccc(Cl)cc1)c1cccc2c1OCCN2c1ccc(Cl)cn1", "note": "[Example 1-121]", "IC50": "< 100"}, {"compound": "O=C(Nc1ccc(OC(F)(F)F)cc1)c1cccc2c1OCCN2c1ncccc1Cl", "note": "[Example 1-022]", "IC50": "< 100"}, {"compound": "O=C(Nc1ccc(OC(F)(F)F)cc1)c1cccc2c1OCCN2c1ncccc1OCc1ccccn1", "note": "[Example 1-216]", "IC50": "100 to 1000"}, {"compound": "Cc1cccnc1N1c2cccc(C(=O)Nc3ccc(OC(F)(F)F)cc3)c2OC[C@@H]1CO", "note": "[Example 4-41]", "IC50": "< 100"}, {"compound": "CC(O)C1COc2c(C(=O)Nc3ccc(OC(F)(F)F)cc3)cccc2N1c1ncccc1Cl", "note": "(stereo not drawn) [Example 4-56]", "IC50": "< 100"}, {"compound": "O=C(Nc1ccc(OC(F)(F)F)cc1)c1cccc2c1OC[C@H](CO)N2c1ccc(Cl)cc1", "note": "[Example 7-07]", "IC50": "< 100"}, {"compound": "Cc1cccc(N2CCOc3c(C(=O)Nc4ccc(C(C)(C)C)cc4)cccc32)n1", "note": "[Example 1-059]", "IC50": "100 to 1000"}, {"compound": "Cc1ccc(N2CCOc3c(C(=O)N[C@H]4CC[C@H](OCC5CCCCC5)CC4)cccc32)nc1", "note": "[Example 1-119]", "IC50": "< 100"}, {"compound": "Cc1ccc(N2CCOc3c(C(=O)Nc4ccc(OCC(C)C)c(C(=O)N(C)C)c4)cccc32)nc1", "note": "[Example 1-077]", "IC50": "100 to 1000"}, {"compound": "Cc1ccc(N2CCOc3c(C(=O)Nc4ccc5c(c4)N(C)CCC5)cccc32)nc1", "note": "[Example 1-162]", "IC50": "< 100"}, {"compound": "O=C(Nc1ccc(OC(F)(F)F)cc1)c1cccc2c1OCCN2c1ccc(O)cn1", "note": "[Example 1-201]", "IC50": "100 to 1000"}, {"compound": "Cc1ccc(N2c3cccc(C(=O)Nc4ccc(C(F)(F)F)c(F)c4)c3OC[C@@H]2CO)nc1", "note": "[Example 4-30]", "IC50": "< 100"}, {"compound": "COCC1CCN(c2ccc(NC(=O)c3cccc4c3OCCN4c3ccc(C)cn3)cc2F)CC1", "note": "[Example 1-071]", "IC50": "< 100"}, {"compound": "O=C(Nc1ccc(OCC(F)(F)F)c(Cl)c1)c1cccc2c1OCCN2c1ncc(CO)cc1Cl", "note": "[Example 2-31]", "IC50": "< 100"}, {"compound": "O=C(Nc1cccc(OC(F)(F)F)c1)c1cccc2c1OCCN2c1ncc(CO)cc1Cl", "note": "[Example 2-47]", "IC50": "< 100"}, {"compound": "COCc1ccc(N2CCOc3c(C(=O)Nc4ccc(C(F)(F)F)cc4)cccc32)nc1", "note": "[Example 1-143]", "IC50": "< 100"}, {"compound": "Cc1ccc(N2CCOc3c(C(=O)Nc4ccc(N5CCC(O)CC5)c(F)c4)cccc32)nc1", "note": "[Example 1-171]", "IC50": "100 to 1000"}, {"compound": "CC(C)COc1ccc(NC(=O)c2cccc3c2OC[C@H](CO)N3c2ncccc2Cl)cc1C(F)(F)F", "note": "[Example 4-33]", "IC50": "< 100"}]}]}
